Measured values as given in PMC12484987 (Scientific Reports, 2025).
“And” between values parts separate entries of the source, which are not always exact repeats. Equal values may be shown once. Read-outs that look alike come from different tables or passages of the source.

Key:
A549 (Lung carcinoma) [1] = settings: for Percentage cytotoxicity: A549, at maximum tested concentration of 50 µg/mL
in vitro = settings: human, MRC-5 cells (normal embryonic lung cells)
[2] = tested on: MRC-5 (normal embryonic lung cell); settings: for Percentage cytotoxicity: MRC-5, at maximum tested concentration of 50 µg/mL; for toxicity toward normal embryonic lung cells (MRC-5), in words: MRC-5, up to 50 µg/mL
A549 (Lung carcinoma) [3] = test: cells; settings: Homo sapiens, A549, 48 h, read-out: IC50 cytotoxic activity
[4] = tested on: MOLT-3 (Acute lymphoblastic leukemia); test: cells; settings: Homo sapiens, MOLT-3, 48 h, read-out: IC50 cytotoxic activity
HIV-1 RT [5] = target: T1, HIV-1 RT (Human immunodeficiency virus type 1 group M subtype B, UniProt P04585); test: HIV-1 RT inhibition assay; assay type: biochemical
[6] = tested on: HuCCA-1 (Cholangiocarcinoma); settings: for Percentage cytotoxicity: HuCCA-1, at maximum tested concentration of 50 µg/mL
S102 (Thai liver cancer) [7] = test: cells; settings: Homo sapiens, 48 h, read-out: IC50 cytotoxic activity
HL-60 (promyeloblast) [8] = test: cells; settings: Homo sapiens, HL-60, 48 h, read-out: IC50 cytotoxic activity
HepG2 (Hepatocarcinoma) [9] = test: cells; settings: Homo sapiens, HepG2, 48 h, read-out: IC50 cytotoxic activity
[10] = tested on: H69AR (Lung cancer, multidrug resistance); test: cells; settings: Homo sapiens, 48 h, read-out: IC50 cytotoxic activity
HL-60 (promyeloblast) [11] = settings: for Percentage cytotoxicity: HL-60, at maximum tested concentration of 50 µg/mL
[12] = tested on: MDA-MB-231 (Hormone-independent breast cancer); test: cells; settings: Homo sapiens, MDA-MB-231, 48 h, read-out: IC50 cytotoxic activity
[13] = tested on: T47-D (Hormone-dependent breast cancer); settings: for Percentage cytotoxicity: T47-D, at maximum tested concentration of 50 µg/mL
[14] = tested on: MDA-MB-231 (Hormone-independent breast cancer); settings: for Percentage cytotoxicity: MDA-MB-231, at maximum tested concentration of 50 µg/mL
[15] = tested on: T47-D (Hormone-dependent breast cancer); test: cells; settings: Homo sapiens, T47D, 48 h, read-out: IC50 cytotoxic activity
[16] = tested on: MOLT-3 (Acute lymphoblastic leukemia); settings: for Percentage cytotoxicity: MOLT-3, at maximum tested concentration of 50 µg/mL
[17] = tested on: H69AR (Lung cancer, multidrug resistance); settings: for Percentage cytotoxicity: H69AR, at maximum tested concentration of 50 µg/mL
[18] = tested on: HeLa (Cervical carcinoma); test: cells; settings: Homo sapiens, 48 h, read-out: IC50 cytotoxic activity
[19] = tested on: HuCCA-1 (Cholangiocarcinoma); test: cells; settings: Homo sapiens, HuCC-A1, 48 h, read-out: IC50 cytotoxic activity
S102 (Thai liver cancer) [20] = settings: for Percentage cytotoxicity: S102, at maximum tested concentration of 50 µg/mL
[21] = tested on: HeLa (Cervical carcinoma); settings: for Percentage cytotoxicity: HeLa, at maximum tested concentration of 50 µg/mL
HepG2 (Hepatocarcinoma) [22] = settings: for Percentage cytotoxicity: HepG2, at maximum tested concentration of 50 µg/mL
[23] = tested on: HeLa (Cervical carcinoma); settings: read-out: IC50 cytotoxicity; cited from earlier work
[24] = tested on: MOLT-3 (Acute lymphoblastic leukemia); settings: read-out: IC50 cytotoxicity; cited from earlier work
HL-60 (promyeloblast) [25] = settings: read-out: IC50 cytotoxicity; cited from earlier work
HIV-1 RT [26] = target: T1, HIV-1 RT; settings: quinolines of the previous publication, cited from earlier work

| IC50 at 48 h (in vitro) | Compound | Percentage cytotoxicity (A549 (Lung carcinoma) [1]) | Percentage cytotoxicity [2] | IC50 (A549 (Lung carcinoma) [3]) | IC50 [4] | Percentage cytotoxicity [6] | IC50 (S102 (Thai liver cancer) [7]) | IC50 (HL-60 (promyeloblast) [8]) | IC50 (HepG2 (Hepatocarcinoma) [9]) | IC50 [10] | Percentage cytotoxicity (HL-60 (promyeloblast) [11]) | IC50 [12] | Percentage cytotoxicity [13] | toxicity toward normal embryonic lung cells (MRC-5), in words [2] | Percentage cytotoxicity [14] | IC50 [15] | Percentage cytotoxicity [16] | Percentage cytotoxicity [17] | IC50 [18] | IC50 [19] | other results |
| --- | --- | --- | --- | --- | --- | --- | --- | --- | --- | --- | --- | --- | --- | --- | --- | --- | --- | --- | --- | --- | --- |
| > 137 µM | Cc1cc(/C=C/C#N)cc(C)c1Nc1ccnc(Nc2ccc(C#N)cc2)n1 [RPV, rilpivirine, reference compound] | 42% | 14% | > 137 µM | 4.3 ± 0.5 µM |  |  |  |  |  |  |  |  |  |  |  |  |  |  |  | IC50 (HIV-1 RT [5]): 0.063 µM; inhibition at 1 µM (HIV-1 RT [5]; read-out: Inhibitory activity (%) against HIV-1 RT): 97.1% |
| > 119 µM | Cc1cc(C#N)cc(C)c1Oc1cc(Oc2c(C)cc(C#N)cc2C)c2ccncc2n1 [Compound 14b, 2,4-di-(2ˊ,6ˊ-dimethyl-4ˊ-cyanophenoxy)−1,7-naphthyridine] | 8% | 0% | > 119 µM | > 119 µM | 0% | > 119 µM | > 119 µM | > 119 µM | > 119 µM | 24% | > 119 µM | 0% | non-toxic | 22% | > 119 µM | 16% | 0% | > 119 µM | > 119 µM | Percentage cytotoxicity (S102 (Thai liver cancer) [20]): 6%; Percentage cytotoxicity [21]: 24%; Percentage cytotoxicity (HepG2 (Hepatocarcinoma) [22]): 34% |
| > 119 µM | Cc1cc(C#N)cc(C)c1Oc1cc(Oc2c(C)cc(C#N)cc2C)c2cnccc2n1 [Compound 13b, 2,4-di-(2ˊ,6ˊ-dimethyl-4ˊ-cyanophenoxy)−1,6-naphthyridine] |  | 43% | 36.1 ± 0.6 µM | 11.3 ± 2.2 µM |  | 103 ± 4.4 µM | 81.5 ± 19.5 µM | 74.7 ± 13.3 µM | 76 ± 6.54 µM |  | 73.2 ± 8.1 µM |  | non-toxic |  | 34.1 ± 2.2 µM |  |  | 24.4 ± 2.5 µM | 32.4 ± 2.7 µM | Selectivity index SI = IC50(normal cell)/IC50(cancer cell line) (A549 (Lung carcinoma) [1]; MRC-5 vs A549): > 3.29; Selectivity index SI = IC50(normal cell)/IC50(cancer cell line) ([6]; MRC-5 vs HuCCA-1): > 3.67; Selectivity index SI = IC50(normal cell)/IC50(cancer cell line) (HL-60 (promyeloblast) [11]; MRC-5 vs HL-60): > 1.46; Selectivity index SI = IC50(normal cell)/IC50(cancer cell line) ([13]; MRC-5 vs T47-D): > 3.49; Selectivity index SI = IC50(normal cell)/IC50(cancer cell line) ([14]; MRC-5 vs MDA-MB-231): > 1.62; Selectivity index SI = IC50(normal cell)/IC50(cancer cell line) ([16]; MRC-5 vs MOLT-3): > 10.52; Selectivity index SI = IC50(normal cell)/IC50(cancer cell line) ([17]; MRC-5 vs H69AR): > 1.56; Selectivity index SI = IC50(normal cell)/IC50(cancer cell line) (S102 (Thai liver cancer) [20]; MRC-5 vs S102): > 1.15; Selectivity index SI = IC50(normal cell)/IC50(cancer cell line) ([21]; MRC-5 vs HeLa): > 4.87; Selectivity index SI = IC50(normal cell)/IC50(cancer cell line) (HepG2 (Hepatocarcinoma) [22]; MRC-5 vs HepG2): > 1.59 |
|  | Cc1cc(C=O)cc(C)c1Oc1cc(Nc2ccc(C#N)cn2)nc2ccccc12 [4-(2’,6’-dimethyl-4’-formylphenoxy)−2-(5’’-cyanopyridin-2’’ylamino)quinoline] |  |  |  |  |  |  |  |  |  |  |  |  |  |  |  |  |  |  |  | IC50 [23]: 25.7 µM; IC50 [24]: 12.7 µM; IC50 (HL-60 (promyeloblast) [25]): 20.5 µM; percentage inhibition against HIV-1 RT (HIV-1 RT [26]): 44% and 44.5%; IC50 (HIV-1 RT [26]; read-out: IC50 against HIV-1 RT): 1.93 µM |
| > 188 µM | Cc1ccnc2c1NC(=O)c1cccnc1N2C1CC1 [NVP, nevirapine, reference compound] | 18% | 1% | > 188 µM | > 188 µM | 11% | > 188 µM | > 188 µM | > 188 µM | > 188 µM | 3% | > 188 µM | 14% |  | 9% | > 188 µM | 29% | 8% | > 188 µM | > 188 µM | Percentage cytotoxicity (S102 (Thai liver cancer) [20]): 3%; Percentage cytotoxicity [21]: 34%; Percentage cytotoxicity (HepG2 (Hepatocarcinoma) [22]): 15% |
